Laboratory results published in patent US12053465B2, “KCC2 expression enhancing compounds and uses thereof” (Whitehead Institute for Biomedical Research, priority 2017, dated 2024).

Assays:
human RTT neurons [1] = assay: Neuronal morphology analysis of cultured human RTT neurons; format: cell-based; conditions: for neurite complexity (Sholl analysis): vs DMSO- or MeBIO-treated
Excerpt: Moreover, a reduction in the number or the strength of excitatory glutamatergic synapses in RTT neurons has been observed in postmortem RTT patient brain samples (30), mouse models of RTT (53), and human stem cell-derived RTT neurons (54). Electrophysiology recording was utilized to assess whether KEECs could rescue the deficits in EGABA and excitatory synaptic transmission of RTT neurons. […] We further investigated whether the beneficial effect of KEECs is a direct result of the increases in neuronal KCC2 gene expression. […] Deficits in a number of morphological measurements, including nuclei size and neurite complexity and branching, are hallmarks of RTT neurons (54-56). […] To validate the morphological measurements, electrophysiological measurements of the neuronal membrane capacitance (Cm), an indicator of neuronal cell size (57) that is reduced in RTT neurons, were conducted. […] Fluorescent images of randomly-selected neurons were acquired on a Nikon Eclipse Ti epifluorescence microscope equipped with 20× lens. Nucleus size analysis of DAPI-stained neuronal nucleus were performed with ImageJ. Sholl analysis and measurements of the total neurite length and branch points were performed with the Simple Neurite Tracer plugin of the ImageJ software. Morphological analyses were carried out with about 60 randomly-selected neurons per treatment group. Image acquisition and analysis were carried out by different researchers, and automated analysis software pipeline were utilized to reduce human bias.

KCC2 expression = assay: Western blot of KCC2 in cultured WT human neurons; format: cell-based; conditions: cultured WT human neurons (WIBR1); Western blot
immature mouse neurons = assay: Gramicidin-perforated patch recording of EGABA in DIV6-7 immature mouse neurons; format: cell-based
Mecp2 mutant mice [2] = assay: Plethysmograph breathing measurement in Mecp2 mutant mouse model of RTT; format: in vivo; conditions: male Mecp2 mutant mice; daily injection, two weeks; vs DMSO- or EtOH-injected control
Procedure: (§1) We assessed the in vivo efficacy of KEECs by treating RTT disease-related symptoms such as breathing pauses and reduced locomotion (58) in a Mecp2 mutant mouse model of RTT. […] Plethysmograph and locomotion measurements were made in 4-6 week-old male Mecp2 mutant animals as a pre-treatment control time point and were then injected daily with KEECs KW-2449 or Piperine. Injection of the solvent DMSO or ethanol (EtOH) served as vehicle controls (FIG. 15A). The same two behavioral measurements in vehicle or KEEC-injected Mecp2 mutant animals were performed again two weeks after the start of daily injections. Each animal's ‘after injection’ data were compared to the ‘before injection’ level to assess behavioral changes.
Male Mecp2 mutant mice (Mecp2^−/y, e.g. the Bird model) between 4-12 weeks of age were used for the in vivo experiments. Subjects were divided into drug treated KO (Piperine/KW-2449), and vehicle treated KO (EtOH/DMSO) groups. Animals were randomly assigned to treatment arms with approximately equivalent numbers in each group. […]
A full body plethysmograph chamber (EMKA Inc, PA) was used to measure breathing patterns. […] For each test, the subject was left in the chamber for 20 minutes, afterwards its breath pattern was recorded for the next 20 minutes, and the estimated amplitude modulation index (eAMI) was calculated from the breath trace to label breath pauses automatically. […]

human RTT neurons [3] = assay: Gramicidin-perforated patch recording of EGABA in cultured human RTT neurons; format: cell-based
Mecp2 mutant mice [4] = assay: Locomotion (infrared beam break) in Mecp2 mutant mouse model of RTT; format: in vivo
Procedure: as §1
Male Mecp2 mutant mice (Mecp2^−/y, e.g. the Bird model) between 4-12 weeks of age were used for the in vivo experiments. Subjects were divided into drug treated KO (Piperine/KW-2449), and vehicle treated KO (EtOH/DMSO) groups. Animals were randomly assigned to treatment arms with approximately equivalent numbers in each group.
KW-2449 stock solution was prepared at 10 mg/ml with DMSO, and Piperine stock solution at 30 mg/ml with EtOH. 20 μl of stock solution were diluted with 1 ml saline for injection. Daily drug treatments or sham injections were performed on both groups between P28 and P56, for at least two weeks, as Mecp2 mutant mice start to show symptoms around P28 and die around P60. Both following tests were performed on both groups of mice before the injections start, and repeated at the end of the injection period. The animals' performance was then compared before and after drug/vehicle injections.
To measure the subjects' nighttime locomotion, a 1-D infrared light-beam frame (ActiMot, TSE-systems, MO) was used. Animals were single-housed in new cages with the same setup as their home cages. The infrared monitor was set up for each cage and the beam crossings was recorded between 17:00 and 9:00 the next morning, where the lights were turned off between 19:00 and 7:00. The average beam crossing frequency during the night (21:00-5:00) was used as the subject's activity score, and the average beam crossing frequency after lights on (7:00-9:00) was used as the subject's day time activity score. The time periods where the mouse is stationary for >5 minutes are discarded to reduce artifact caused by the mouse sleeping. As we look at both day-time and night-time locomotion, a bonferroni correction with repeated comparison number of 2 was applied. All behavioral analyses were performed by experimenters who were blind to the treatment condition.

| SMILES | nucleus size (human RTT neurons [1]) | number of neurite branches (human RTT neurons [1]) | total neurite length (human RTT neurons [1]) | neurite complexity (Sholl analysis) (human RTT neurons [1]) | KCC2 expression (KCC2 expression) | EGABA after treatment (immature mouse neurons; DIV6-7 immature mouse neurons, untreated about −50 mV) | significant hyperpolarizing shift in EGABA (immature mouse neurons; DIV6 cultured immature mouse neurons) | frequency of breathing pauses (Mecp2 mutant mice [2]) | shift in EGABA (human RTT neurons [3]; RTT neurons transfected with KCC2 shRNA) | shift in EGABA (human RTT neurons [3]; cultured human RTT neurons, DMSO about −50 mV, WT −70 mV) | night-time locomotion (infrared beam break frequency in home cage) (Mecp2 mutant mice [4]; Mecp2 mutant animals, vs DMSO control) | locomotive activities (Mecp2 mutant mice [4]; male Mecp2 mutant mice, daily injection, two weeks, vs DMSO- or EtOH-injected control) |
| --- | --- | --- | --- | --- | --- | --- | --- | --- | --- | --- | --- | --- |
| O=C1Nc2cc(Br)ccc2/C1=C1/Nc2ccccc2/C1=N\O [BIO, (2Z,3E)-6′-bromo-3-(hydroxyimino)-[2,3′-biindolinylidene]-2′-one] | significantly increase the nucleus size | significantly increase | significantly increase | significant increase in neurite complexity | significantly increased KCC2 expression | – | – | – | – | – | – | – |
| O=C(c1ccc(/C=C/c2n[nH]c3ccccc23)cc1)N1CCNCC1 [KW-2449, (E)-(4-(2-(1H-indazol-3-yl)vinyl)phenyl)(piperazin-1-yl)methanone] | significantly increase the nucleus size | significantly increase | significantly increase | significant increase in neurite complexity | significant increase in KCC2 expression in a dose-dependent manner | about −70 mV | induces significant hyperpolarizing shift in EGABA | significantly reduced the frequency of breathing pauses | failed to hyperpolarize the EGABA | significant hyperpolarizing shift in EGABA to levels comparable to WT neurons | significantly increased night-time locomotion | remarkable increase in locomotive activities |
